Results from paper PMC8274062, “Promising Non-cytotoxic Monosubstituted Chalcones to Target Monoamine Oxidase-B” (ACS Medicinal Chemistry Letters, 2021).
Several values for one entry are separate records, joined by “and”; a condition that tells them apart may be missing. Equal entries are not always repeated.

What was measured:
[1] = test system: HT-29 (human colorectal adenocarcinoma); assay: Cell growth assay (trypan blue), HT-29; assay type: cell-based; conditions: HT-29, 72 h of incubation
[2] = target: T1, human recombinant MAO-B (Homo sapiens, UniProt P27338); assay: Monoamine oxidase inhibition assay (Amplex Red, kynuramine), MAO-B; conditions: for mode of inhibition: Lineweaver–Burk double-reciprocal plots, MAO-B; for Ki: read-out: Ki MAO-B, kynuramine substrate, pH 7.4, 37°C
T1 sequence (P27338 1-520): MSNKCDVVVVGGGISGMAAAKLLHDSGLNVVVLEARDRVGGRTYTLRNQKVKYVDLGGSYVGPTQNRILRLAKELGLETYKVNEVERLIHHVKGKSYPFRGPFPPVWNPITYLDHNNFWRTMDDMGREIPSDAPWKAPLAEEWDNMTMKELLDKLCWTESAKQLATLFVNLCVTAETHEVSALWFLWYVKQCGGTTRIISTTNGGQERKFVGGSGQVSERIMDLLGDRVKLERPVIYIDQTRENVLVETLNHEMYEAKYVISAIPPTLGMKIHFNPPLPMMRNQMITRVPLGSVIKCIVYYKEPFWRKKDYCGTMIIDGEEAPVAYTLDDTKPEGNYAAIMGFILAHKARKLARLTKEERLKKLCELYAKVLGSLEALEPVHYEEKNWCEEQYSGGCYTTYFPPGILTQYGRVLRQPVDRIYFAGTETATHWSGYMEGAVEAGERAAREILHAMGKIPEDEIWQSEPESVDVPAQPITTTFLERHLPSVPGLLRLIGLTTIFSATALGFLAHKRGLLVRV
Method: (§1) Materials. Human recombinant MAO-A and MAO-B were expressed in baculovirus infected BT1 cells (5 mg/ml) and horseradish peroxidases were purchased from Fluka-Sigma-Aldrich s.r.l. (Italy). A Cary-Eclipse fluorimeter (Varian Inc., Palo Alto, CA, USA) was employed for fluorescence measurements.
(§2) Monoamine oxidase inhibition assay. Monoamine oxidase activity was determined by measuring H2O2 generation rate by a peroxidase-coupled continuous assay, using the Amplex Red reagent as fluorogenic substrate for horseradish peroxidase.1 All experiments were carried out as previously reported,2 in 100 mM potassium phosphate buffer, 0.1 mM EDTA, pH 7.4 and at 37°C. The assays were carried out in a final volume of 800 L, in the presence of Amplex Red (100 M) and horseradish peroxidase type II (5 UmL -1), and using kynuramine (20-1200 M) as common MAO-A and MAO-B substrate. h-MAO-A and h-MAO-B concentration in the assay solutions were 3 and 6 g/ml, respectively. After 5 min of pre-incubation of the enzyme with the compounds, substrate was added and the initial rates of reaction were recorded. The rates of the enzymatic reaction were determined by detecting the increase in the fluorescence intensity at
(§3) The generation rate of H2O2 was calculated from the increase of fluorescence intensity by means of calibration curves obtained using standard solution of H2O, in
M of maxima concentrations tested).
(§4) Steady state kinetic parameters (V max and K m) were calculated by fitting the Michaelis-Menten equation to the experimental data (initial velocity vs substrate concentrations), with Sigma Plot software, version 9.0 (Jandel Scientific, San Rafael, CA, USA). The mode of inhibition was determined by global fit analysis (GraphPad 9.0 software, GraphPad Software, San Diego, CA,
(§5) USA) of the initial velocity (V0) vs substrate concentration plots, at various inhibitor concentrations. The competitive, mixed, non-competitive and uncompetitive inhibition models were analysed and the fit giving the highest r2 value was chosen for the calculation of inhibition
(§6) compounds, experimental data are presented as double reciprocal Lineweaver-Burk plots (1/v vs 1/S). Ki values are expressed as mean ±S.D. All experiments were carried out at least in

[3] = test system: A2780 (human ovarian carcinoma cells); assay: Cell growth assay (trypan blue), A2780; assay type: cell-based; conditions: A2780, 72 h of incubation
[4] = target: T2, human recombinant MAO-A (Homo sapiens, UniProt P21397); assay: Monoamine oxidase inhibition assay (Amplex Red, kynuramine), MAO-A; conditions: read-out: Ki MAO-A; kynuramine substrate, pH 7.4, 37°C
T2 sequence (P21397 1-527): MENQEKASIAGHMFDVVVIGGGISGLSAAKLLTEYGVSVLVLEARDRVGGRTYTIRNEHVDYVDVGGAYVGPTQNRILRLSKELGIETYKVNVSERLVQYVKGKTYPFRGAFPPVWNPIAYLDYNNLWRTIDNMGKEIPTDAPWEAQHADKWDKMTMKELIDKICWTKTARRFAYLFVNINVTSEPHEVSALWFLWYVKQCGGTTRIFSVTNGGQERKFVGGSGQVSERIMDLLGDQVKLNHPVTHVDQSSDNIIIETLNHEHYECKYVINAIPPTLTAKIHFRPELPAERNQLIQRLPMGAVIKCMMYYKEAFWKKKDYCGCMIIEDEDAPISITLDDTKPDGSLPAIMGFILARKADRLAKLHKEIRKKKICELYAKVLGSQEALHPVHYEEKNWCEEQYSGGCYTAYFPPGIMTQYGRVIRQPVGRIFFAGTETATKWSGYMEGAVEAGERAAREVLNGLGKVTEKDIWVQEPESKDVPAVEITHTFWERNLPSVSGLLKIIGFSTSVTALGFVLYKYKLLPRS
Method: as §1, §2, §3
M of maxima concentrations tested).
as §4, §5, §6

[5] = test system: recombinant MAO-A or MAO-B; assay: Reversibility assay (dialysis/ultrafiltration); assay type: biochemical, human; conditions: incubated at 4 times the Ki value for 20 min before dialysis
[6] = test system: Met-5A (human mesothelial cells); assay: Cell growth assay (trypan blue), Met-5A; assay type: cell-based; conditions: nontumorigenic Met-5A mesothelial cells
Source text: fluorescence measurements.
prepared in dimethylsulfoxide.
performed to determine cell viability.
µM of maxima concentrations tested).
The mode of inhibition was […]

[7] = test system: MAO-B; design: method as in PMID 26337020, PMID 28577983; conditions: previously tested; ref [19],[23]; cited from earlier work

| Compound | GI50 [1] [µM] | mode of inhibition [2] | Ki [2] | GI50 [3] [µM] | Ki [4] [µM] | MAO activity after dialysis (reversibility) [5] | GI50 [6] [µM] | inhibitory potency on MAO-B [7] |
| --- | --- | --- | --- | --- | --- | --- | --- | --- |
| O=C(/C=C/c1ccccc1[N+](=O)[O-])c1ccccc1 [Compound 1] | > 20 | competitive behavior | 0.4 ± 0.08 µM | > 20 | 2.2 | – | – | – |
| O=C(/C=C/c1cccc([N+](=O)[O-])c1)c1ccccc1 [Compound 2] | 5 ± 1.8 | – | 0.071 ± 0.011 µM | 2.8 ± 0.3 | 2.5 | – | – | – |
| O=C(/C=C/c1ccc([N+](=O)[O-])cc1)c1ccccc1 [Compound 3] | 15.5 ± 3.9 | – | – | 7.5 ± 1.3 | – | – | – | – |
| O=C(/C=C/c1ccccc1C(F)(F)F)c1ccccc1 [Compound 4] | 11.7 ± 3.6 | – | – | 7.2 ± 0.3 | – | – | – | – |
| O=C(/C=C/c1cccc(C(F)(F)F)c1)c1ccccc1 [Compound 5] | 12.7 ± 3.2 | – | – | 10 ± 0.4 | – | – | – | – |
| O=C(/C=C/c1ccc(C(F)(F)F)cc1)c1ccccc1 [Compound 6] | 12.2 ± 0.4 | – | – | 14 ± 0.9 | – | – | – | – |
| COc1ccccc1/C=C/C(=O)c1ccccc1 [Compound 7] | 13 ± 4 | – | – | 13.8 ± 0.3 | – | – | – | – |
| COc1cccc(/C=C/C(=O)c2ccccc2)c1 [Compound 8] | 14.5 ± 0.7 | – | – | 13.2 ± 2.2 | – | – | – | – |
| COc1ccc(/C=C/C(=O)c2ccccc2)cc1 [Compound 9] | 16.7 ± 2.5 | – | – | 14.4 ± 3.5 | – | – | – | – |
| O=C(/C=C/c1ccccc1)c1ccccc1[N+](=O)[O-] [Compound 10] | 8.3 ± 1.4 | – | – | 5.8 ± 0.8 | – | – | – | – |
| O=C(/C=C/c1ccccc1)c1cccc([N+](=O)[O-])c1 [Compound 11] | 9 ± 0.1 | – | – | 4.3 ± 1.5 | – | – | – | – |
| O=C(/C=C/c1ccccc1)c1ccccc1C(F)(F)F [Compound 12] | 10.8 ± 0.4 | – | – | 5.8 ± 2.9 | – | – | – | – |
| O=C(/C=C/c1ccccc1)c1cccc(C(F)(F)F)c1 [Compound 13] | > 20 | competitive mode of inhibition | 0.005 ± 0.0005 µM | > 20 | 4.6 | fully recovered | > 20 | – |
| O=C(/C=C/c1ccccc1)c1ccc(C(F)(F)F)cc1 [Compound 14] | – | competitive behavior | 0.0146 ± 0.0001 µM | – | 9.2 | – | – | – |
| COc1ccccc1C(=O)/C=C/c1ccccc1 [Compound 15] | 14.8 ± 2 | – | – | 7.3 ± 1.1 | – | – | – | lower inhibitory potency than for 17 |
| COc1cccc(C(=O)/C=C/c2ccccc2)c1 [Compound 16] | 14.7 ± 2.5 | – | – | 8 ± 0.1 | – | – | – | lower inhibitory potency than for 17 |
| COc1ccc(C(=O)/C=C/c2ccccc2)cc1 [Compound 17] | 11.7 ± 3.7 | – | 0.022 µM and 0.0219 µM | 6.8 ± 1 | 13 | – | ~11.8 | – |
| O=C(/C=C/c1ccccc1)c1ccccc1 [chalcone] | – | competitive behavior | 0.056 ± 0.006 µM | – | 14.6 | – | ~7 | – |
| C[C@H](NCc1ccc(OCc2cccc(F)c2)cc1)C(N)=O [safinamide, reference compound] | > 20 | standard competitive inhibitor | – | > 20 | – | – | > 20 | – |
